The source of these data is ChEMBL document CHEMBL5532702, “Coumarin-furo[2,3-d]pyrimidone hybrid molecules targeting human liver cancer cells: synthesis, anticancer effect, EGFR inhibition and molecular docking studies” (RSC Med Chem, 2024).

Active and inactive are the calls of the source. The calls are words filed in the database; no cut-off is given here. Some results are limits rather than exact numbers.

One assay concerns HepG2. Nature of the assay: Inhibition of cell migration in human HepG2 cells at 5.42 to 27.10 micromol/L incubated for 24 hrs by crystal violet staining based microscopic analysis. In kind it is functional. To be noted: dose 5.42-27.1 µmol/L.
Consider `CCN(CC)c1nc2oc(C)c(C(=O)NN)c2c(=O)n1-c1ccc(C)cc1`, for which the inhibition entry is “Active”.

A further assay relates to HepG2. Nature of the assay: Inhibition of cell invasion in human HepG2 cells at 5.42 to 27.10 micromol/L incubated for 24 hrs by crystal violet staining based microscopic analysis. To be noted: dose 5.42-27.1 µmol/L. In kind it is functional.
On to `CCN(CC)c1nc2oc(C)c(C(=O)NN)c2c(=O)n1-c1ccc(C)cc1`, for which the inhibition result was “Active”.

In the next assay the test system is HepG2. Nature of the assay: Cytotoxicity against human HepG2 cells assessed as reduction in cell viability incubated for 48 hrs by CCK-8 assay. To be noted: HepG2, 48 h.
The term IC50 denotes the concentration needed to halve the response being measured. For `CNC(=O)c1cc(Oc2ccc(NC(=O)Nc3ccc(Cl)c(C(F)(F)F)c3)cc2)ccn1` [SORAFENIB], the IC50 was 12.3 µM.

On to `Cc1cccc(-n2c(N3CCOCC3)nc3oc(C)c(C(=O)NN)c3c2=O)c1`, for which the IC50 came out at 40.8 µM.

As to `CCN(CC)c1nc2oc(C)c(C(=O)NN)c2c(=O)n1-c1ccc(C)cc1`, the IC50 stood at 17.2 µM.

As to `CCCCNc1nc2oc(C)c(C(=O)NN)c2c(=O)n1-c1ccccc1`, the 50% inhibitory concentration (IC50) was greater than 100 µM.

Take `CCCN(CCC)c1nc2oc(C)c(C(=O)NN)c2c(=O)n1-c1ccccc1`: the IC50 is 17 µM.

`CCCNc1nc2oc(C)c(C(=O)NNC(=O)c3cc4ccccc4oc3=O)c2c(=O)n1-c1ccccc1`: the IC50 amounted to 7.72 µM.

On to `CCCNc1nc2oc(C)c(C(=O)NN)c2c(=O)n1-c1ccc(C)cc1`, for which the IC50 turned out to be 84.1 µM.

Turning to `CCCCNc1nc2oc(C)c(C(=O)NNC(=O)c3cc4ccccc4oc3=O)c2c(=O)n1-c1ccccc1`, the IC50 was 8.74 µM.

On to `CCCCNc1nc2oc(C)c(C(=O)NN)c2c(=O)n1-c1cccc(C)c1`, for which the IC50 was determined as 73.9 µM.

Turning to `CCCCNc1nc2oc(C)c(C(=O)NNC(=O)c3cc4ccccc4oc3=O)c2c(=O)n1-c1ccc(C)cc1`, the half-maximal inhibitory concentration (IC50) was determined as 14.5 µM.

In the case of `CCCNc1nc2oc(C)c(C(=O)NN)c2c(=O)n1-c1ccccc1`, the IC50 is 69.3 µM.

In the case of `CCN(CC)c1nc2oc(C)c(C(=O)NN)c2c(=O)n1-c1cccc(C)c1`, the IC50 is 36.5 µM.

Take `CCCNc1nc2oc(C)c(C(=O)NN)c2c(=O)n1-c1cccc(C)c1`: the IC50 was 58.9 µM.

In the case of `Cc1cccc(-n2c(N3CCOCC3)nc3oc(C)c(C(=O)NNC(=O)c4cc5ccccc5oc4=O)c3c2=O)c1`, the IC50 was found to be 26.8 µM.

For the compound `CCN(CC)c1nc2oc(C)c(C(=O)NN)c2c(=O)n1-c1ccccc1`, the IC50 worked out at 30.7 µM.

Regarding `CCCN(CCC)c1nc2oc(C)c(C(=O)NNC(=O)c3cc4ccccc4oc3=O)c2c(=O)n1-c1ccc(C)cc1`, the IC50 worked out at 22.2 µM.

On to `CCCNc1nc2oc(C)c(C(=O)NNC(=O)c3cc4ccccc4oc3=O)c2c(=O)n1-c1cccc(C)c1`, for which the IC50 is 24.3 µM.

For the compound `CCCCNc1nc2oc(C)c(C(=O)NN)c2c(=O)n1-c1ccc(C)cc1`, the IC50 was greater than 100 µM.

In the case of `CCCN(CCC)c1nc2oc(C)c(C(=O)NN)c2c(=O)n1-c1ccc(C)cc1`, the IC50 came out at 8.53 µM.

As for `CCCN(CCC)c1nc2oc(C)c(C(=O)NNC(=O)c3cc4ccccc4oc3=O)c2c(=O)n1-c1ccccc1`, the IC50 was determined as 14.3 µM.

On to `Cc1oc2nc(N3CCOCC3)n(-c3ccccc3)c(=O)c2c1C(=O)NNC(=O)c1cc2ccccc2oc1=O`, for which the IC50 was 24.2 µM.

For the compound `CCCCNc1nc2oc(C)c(C(=O)NNC(=O)c3cc4ccccc4oc3=O)c2c(=O)n1-c1cccc(C)c1`, the IC50 turned out to be 13 µM.

With `Cc1oc2nc(N3CCOCC3)n(-c3ccccc3)c(=O)c2c1C(=O)NN`, the IC50 turned out to be 45.1 µM.

For the compound `Cc1ccc(-n2c(N3CCOCC3)nc3oc(C)c(C(=O)NNC(=O)c4cc5ccccc5oc4=O)c3c2=O)cc1`, the IC50 turned out to be 40 µM.

`Cc1ccc(-n2c(N3CCOCC3)nc3oc(C)c(C(=O)NN)c3c2=O)cc1`: the IC50 amounted to 55.9 µM.

For the compound `CCN(CC)c1nc2oc(C)c(C(=O)NNC(=O)c3cc4ccccc4oc3=O)c2c(=O)n1-c1ccc(C)cc1`, the IC50 was greater than 100 µM.

For `CCCNc1nc2oc(C)c(C(=O)NNC(=O)c3cc4ccccc4oc3=O)c2c(=O)n1-c1ccc(C)cc1`, the half-maximal inhibitory concentration (IC50) is 21.8 µM.

Regarding `CCN(CC)c1nc2oc(C)c(C(=O)NNC(=O)c3cc4ccccc4oc3=O)c2c(=O)n1-c1cccc(C)c1`, the IC50 turned out to be 26.5 µM.

In the case of `CCN(CC)c1nc2oc(C)c(C(=O)NNC(=O)c3cc4ccccc4oc3=O)c2c(=O)n1-c1ccccc1`, the half-inhibitory concentration (IC50) turned out to be 7.89 µM.
